# Assay results taken from ChEMBL document CHEMBL5260810, “Inhibition of bromodomain-containing protein 9 for the prevention of epigenetically-defined drug resistance” (Bioorg Med Chem Lett, 2017).
# What was measured:
# [1] = test system: AN3-CA; experiment: Cytotoxicity against human AN3-CA cells measured after 8 days; assay type: functional, cell-based; details: 192 h
# [2] = test system: NCI-H2171; experiment: Cytotoxicity against human NCI-H2171 cells measured after 8 days; assay type: functional, cell-based; details: NCI-H2171, 192 h
# [3] = test system: HCC1187; experiment: Cytotoxicity against human HCC1187 cells measured after 8 days; assay type: functional, cell-based; details: HCC1187, 192 h
# [4] = Cytotoxicity against human PK-1 cells measured after 8 days; assay type: functional, cell-based; details: PK-1, 192 h
# [5] = test system: TYK-nu; experiment: Cytotoxicity against human TYK-nu cells measured after 8 days; assay type: functional, cell-based; details: 192 h
# [6] = Cytotoxicity against human 4498-16820 Mel-BR1 X1 cells measured after 8 days; assay type: functional, cell-based; details: 4498-16820 Mel-BR1 X1, 192 h
# [7] = test system: CHP-212; experiment: Cytotoxicity against human CHP-212 cells measured after 8 days; assay type: functional, cell-based; details: CHP-212, 192 h
# [8] = test system: SF-268; experiment: Cytotoxicity against human SF-268 cells measured after 8 days; assay type: functional, cell-based; details: SF-268, 192 h
# [9] = Cytotoxicity against human NCE-G 130 cells measured after 8 days; assay type: functional, cell-based; details: NCE-G 130, 192 h
# [10] = test system: SK-N-FI; experiment: Cytotoxicity against human SK-N-FI cells measured after 8 days; assay type: functional, cell-based; details: 192 h
# [11] = Cytotoxicity against human HCC15 cells measured after 8 days; assay type: functional, cell-based; details: HCC15, 192 h
# [12] = test system: HT55; experiment: Cytotoxicity against human HT55 cells measured after 8 days; assay type: functional, cell-based; details: HT55, 192 h
# [13] = test system: OV-90; experiment: Cytotoxicity against human OV-90 cells measured after 8 days; assay type: functional, cell-based; details: OV-90, 192 h
# [14] = test system: A673; experiment: Cytotoxicity against human A673 cells measured after 8 days; assay type: functional, cell-based; details: A673, 192 h
# [15] = Cytotoxicity against human SCLC-22H cells measured after 8 days; assay type: functional, cell-based; details: 192 h
# [16] = test system: SK-MEL-1; experiment: Cytotoxicity against human SK-MEL-1 cells measured after 8 days; assay type: functional, cell-based; details: SK-MEL-1, 192 h
# [17] = test system: MG-63; experiment: Cytotoxicity against human MG-63 cells measured after 8 days; assay type: functional, cell-based; details: MG-63, 192 h
# [18] = test system: KYSE-140; experiment: Cytotoxicity against human KYSE-140 cells measured after 8 days; assay type: functional, cell-based; details: KYSE-140, 192 h
# [19] = Cytotoxicity against human HEC-116 cells measured after 8 days; assay type: functional, cell-based; details: HEC-116, 192 h
# [20] = Cytotoxicity against human COV413B cells measured after 8 days; assay type: functional, cell-based; details: 192 h
# [21] = test system: KURAMOCHI; experiment: Cytotoxicity against human KURAMOCHI cells measured after 8 days; assay type: functional, cell-based; details: 192 h
# [22] = test system: COLO-320-HSR; experiment: Cytotoxicity against human COLO 320HSR cells measured after 8 days; assay type: functional, cell-based; details: 192 h
# [23] = test system: BFTC-909; experiment: Cytotoxicity against human BFTC-909 cells measured after 8 days; assay type: functional, cell-based; details: BFTC-909, 192 h
# [24] = test system: SU-DHL-5; experiment: Cytotoxicity against human SU-DHL-5 cells measured after 8 days; assay type: functional, cell-based; details: SU-DHL-5, 192 h
# [25] = test system: SU-DHL-6; experiment: Cytotoxicity against human SU-DHL-6 cells measured after 8 days; assay type: functional, cell-based; details: SU-DHL-6, 192 h
# [26] = test system: SNU-638; experiment: Cytotoxicity against human SNU-638 cells measured after 8 days; assay type: functional, cell-based; details: SNU-638, 192 h
# [27] = Cytotoxicity against human SW403 cells measured after 8 days; assay type: functional, cell-based; details: SW-403, 192 h
# [28] = Cytotoxicity against human COLO 853 cells measured after 8 days; assay type: functional, cell-based; details: COLO 853, 192 h
# [29] = Cytotoxicity against human HEC-59 cells measured after 8 days; assay type: functional, cell-based; details: HEC-59, 192 h
# [30] = test system: KMS-12-PE; experiment: Cytotoxicity against human KMS-12-PE cells measured after 8 days; assay type: functional, cell-based; details: 192 h
# [31] = test system: RMG-I; experiment: Cytotoxicity against human RMG-I cells measured after 8 days; assay type: functional, cell-based; details: 192 h
# [32] = test system: KYSE-70 cell line; experiment: Cytotoxicity against human KYSE-70 cell line measured after 8 days; assay type: functional, cell-based; details: KYSE-70, 192 h
# [33] = test system: SK-MEL-24; experiment: Cytotoxicity against human SK-MEL-24 cells measured after 8 days; assay type: functional, cell-based; details: SK-MEL-24, 192 h
# [34] = Cytotoxicity against human NCE-G 96 cells measured after 8 days; assay type: functional, cell-based; details: NCE-G 96, 192 h
# [35] = test system: SK-MEL-2; experiment: Cytotoxicity against human SK-MEL-2 cells measured after 8 days; assay type: functional, cell-based; details: SK-MEL-2, 192 h
# [36] = Cytotoxicity against human 624-mel cells measured after 8 days; assay type: functional, cell-based; details: Homo sapiens, 624, 192 h
# [37] = target: Serine/threonine-protein kinase PLK1 (Homo sapiens) (UniProt P53350); experiment: Inhibition of PLK1 (unknown origin) at 1 uM relative to control
# Serine/threonine-protein kinase PLK1 (Homo sapiens), sequence (P53350 whole entry): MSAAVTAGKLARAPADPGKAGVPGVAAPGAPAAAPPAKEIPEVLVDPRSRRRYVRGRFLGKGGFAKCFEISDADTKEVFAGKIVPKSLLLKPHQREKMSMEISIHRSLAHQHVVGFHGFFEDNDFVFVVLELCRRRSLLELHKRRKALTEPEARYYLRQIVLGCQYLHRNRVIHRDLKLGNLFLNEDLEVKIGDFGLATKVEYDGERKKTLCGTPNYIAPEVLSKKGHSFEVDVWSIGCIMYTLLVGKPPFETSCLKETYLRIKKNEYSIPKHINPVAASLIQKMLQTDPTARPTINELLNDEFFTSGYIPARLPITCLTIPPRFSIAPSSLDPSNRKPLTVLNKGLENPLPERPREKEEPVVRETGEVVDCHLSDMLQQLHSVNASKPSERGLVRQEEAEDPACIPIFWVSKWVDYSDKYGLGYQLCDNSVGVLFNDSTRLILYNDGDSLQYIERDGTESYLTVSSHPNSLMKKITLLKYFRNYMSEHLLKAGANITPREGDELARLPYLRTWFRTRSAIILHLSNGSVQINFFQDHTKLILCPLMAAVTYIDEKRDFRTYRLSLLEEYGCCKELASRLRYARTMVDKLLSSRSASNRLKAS
# [38] = Cytotoxicity against human PK-59 cells measured after 8 days; assay type: functional, cell-based; details: PK-59, 192 h
# [39] = test system: COLO-800; experiment: Cytotoxicity against human COLO-800 cells measured after 8 days; assay type: functional, cell-based; details: COLO-800, 192 h
# [40] = test system: NCI-H716; experiment: Cytotoxicity against human NCI-H716 cells measured after 8 days; assay type: functional, cell-based; details: NCI-H716, 192 h
# [41] = test system: MKN-1; experiment: Cytotoxicity against human MKN-1 cells measured after 8 days; assay type: functional, cell-based; details: MKN-1, 192 h
# [42] = Cytotoxicity against human C32TG cells measured after 8 days; assay type: functional, cell-based; details: 192 h
# [43] = test system: LOX IMVI; experiment: Cytotoxicity against human LOX IMVI cells measured after 8 days; assay type: functional, cell-based; details: 192 h
# [44] = test system: CaR-1; experiment: Cytotoxicity against human CaR-1 cells measured after 8 days; assay type: functional, cell-based; details: CaR-1, 192 h
# [45] = Cytotoxicity against mouse TRAMP-C1 cells measured after 8 days; assay type: functional, cell-based; details: TRAMP-C1, 192 h
# [46] = test system: OCI-Ly10; experiment: Cytotoxicity against human OCI-Ly10 cells measured after 8 days; assay type: functional, cell-based; details: OCI-Ly10, 192 h
# [47] = Cytotoxicity against human PMF-ko14 cells measured after 8 days; assay type: functional, cell-based; details: PMF-ko14, 192 h
# [48] = test system: SU-DHL-8; experiment: Cytotoxicity against human SU-DHL-8 cells measured after 8 days; assay type: functional, cell-based; details: SU-DHL-8, 192 h
# [49] = Cytotoxicity against human GR-M cells measured after 8 days; assay type: functional, cell-based; details: 192 h
# [50] = Cytotoxicity against human Kelly cells measured after 8 days; assay type: functional, cell-based; details: 192 h
# [51] = test system: MDA-MB-175-VII; experiment: Cytotoxicity against human MDA-MB-175-VII cells measured after 8 days; assay type: functional, cell-based; details: 192 h
# [52] = Cytotoxicity against human NCE-G 28T cells measured after 8 days; assay type: functional, cell-based; details: 192 h
# [53] = target: GABA-A receptor; alpha-1/beta-2/gamma-2 (Homo sapiens) (UniProt P14867+P47870+P18507); experiment: Inhibition of GABA alpha1/beta2/gamma2 (unknown origin) at 1 uM relative to control; assay type: protein-complex assay
# [54] = test system: OE33; experiment: Cytotoxicity against human OE33 cells measured after 8 days; assay type: functional, cell-based; details: OE33, 192 h
# [55] = test system: ES-2; experiment: Cytotoxicity against human ES2 cells measured after 8 days; assay type: functional, cell-based; details: ES-2, 192 h
# [56] = test system: SJRH30; experiment: Cytotoxicity against human SJRH30 cells measured after 8 days; assay type: functional, cell-based; details: SJRH30, 192 h
# [57] = test system: HuP-T4; experiment: Cytotoxicity against human HuP-T4 cells measured after 8 days; assay type: functional, cell-based; details: HuP-T4, 192 h
# [58] = test system: EL4; experiment: Cytotoxicity against mouse EL4 cells measured after 8 days; assay type: functional, cell-based; details: EL4, 192 h
# [59] = Cytotoxicity against human HCC850 cells measured after 8 days; assay type: functional, cell-based; details: HCC850, 192 h
structure (smiles),measurement,setting,value
C/C=C/Cn1cc(-c2ccc(C(C)(C)O)cc2OC)c2cc[nH]c2c1=O,IC50,[1],20 µM
same,IC50,[2],20 µM
same,IC50,[3],20 µM
same,IC50,[4],20 µM
same,IC50,[5],20 µM
same,IC50,[6],20 µM
same,IC50,[7],20 µM
same,IC50,[8],20 µM
same,IC50,[9],20 µM
same,IC50,[10],20 µM
same,IC50,[11],20 µM
same,IC50,[12],20 µM
same,IC50,[13],20 µM
same,IC50,[14],20 µM
same,IC50,[15],20 µM
same,IC50,[16],20 µM
same,IC50,[17],7.4 µM
same,IC50,[18],20 µM
same,IC50,[19],20 µM
same,IC50,[20],20 µM
same,IC50,[21],20 µM
same,IC50,[22],20 µM
same,IC50,[23],20 µM
same,IC50,[24],10.3 µM
same,IC50,[25],11.1 µM
same,IC50,[26],20 µM
same,IC50,[27],20 µM
same,IC50,[28],20 µM
same,IC50,[29],20 µM
same,IC50,[30],20 µM
same,IC50,[31],20 µM
same,IC50,[32],20 µM
same,IC50,[33],20 µM
same,IC50,[34],20 µM
same,IC50,[35],20 µM
same,IC50,[36],20 µM
same,inhibition,[37],1%
same,IC50,[38],20 µM
same,IC50,[39],20 µM
same,IC50,[40],20 µM
same,IC50,[41],20 µM
same,IC50,[42],20 µM
same,IC50,[43],20 µM
same,IC50,[44],20 µM
same,IC50,[45],20 µM
same,IC50,[46],20 µM
same,IC50,[47],20 µM
same,IC50,[48],3.26 µM
same,IC50,[49],20 µM
same,IC50,[50],20 µM
same,IC50,[51],20 µM
same,IC50,[52],20 µM
same,inhibition,[53],4%
same,IC50,[54],20 µM
same,IC50,[55],20 µM
same,IC50,[56],20 µM
same,IC50,[57],20 µM
same,IC50,[58],20 µM
same,IC50,[59],20 µM
C/C=C/Cn1cc(-c2ccc(C(=O)N3CCOCC3)cc2)c2cc[nH]c2c1=O,IC50,[1],20 µM
same,IC50,[2],20 µM
same,IC50,[3],20 µM
same,IC50,[4],20 µM
same,IC50,[5],20 µM
same,IC50,[6],20 µM
same,IC50,[7],18.6 µM
same,IC50,[8],20 µM
same,IC50,[9],20 µM
same,IC50,[10],20 µM
same,IC50,[11],20 µM
same,IC50,[12],20 µM
same,IC50,[13],20 µM
same,IC50,[14],20 µM
same,IC50,[15],20 µM
same,IC50,[16],20 µM
same,IC50,[17],20 µM
same,IC50,[18],20 µM
same,IC50,[19],20 µM
same,IC50,[20],20 µM
same,IC50,[21],20 µM
same,IC50,[22],20 µM
same,IC50,[23],20 µM
same,IC50,[24],14.8 µM
same,IC50,[25],12.1 µM
same,IC50,[26],20 µM
same,IC50,[27],20 µM
same,IC50,[28],20 µM
same,IC50,[29],20 µM
same,IC50,[30],20 µM
same,IC50,[31],19.4 µM
same,IC50,[32],20 µM
same,IC50,[33],20 µM
same,IC50,[34],20 µM
same,IC50,[35],20 µM
same,IC50,[36],20 µM
same,inhibition,[37],0.9%
same,IC50,[38],20 µM
same,IC50,[39],20 µM
same,IC50,[40],20 µM
same,IC50,[41],20 µM
same,IC50,[42],20 µM
same,IC50,[43],20 µM
same,IC50,[44],20 µM
same,IC50,[45],19.7 µM
same,IC50,[46],20 µM
same,IC50,[47],20 µM
same,IC50,[48],12.8 µM
same,IC50,[49],20 µM
same,IC50,[50],20 µM
same,IC50,[51],20 µM
same,IC50,[52],20 µM
same,inhibition,[53],8%
same,IC50,[54],20 µM
same,IC50,[55],20 µM
same,IC50,[56],20 µM
same,IC50,[57],20 µM
same,IC50,[58],20 µM
same,IC50,[59],20 µM
